The text below walks through data of patent US8106208B2, “Benzamide compounds that act as NK receptor antagonists” (Albireo AB, priority 2006, dated 2012).

One data set concerns the target T1, human NK1 receptor (Homo sapiens, UniProt P25103).
T1 construct: expressed in transfected cells; from AstraZeneca R&D Wilmington
Kind of data set: FLIPR assay, inhibition of human NK1 receptor activation (intracellular Ca2+ increase). It counts as cell-based. As to conditions: CHO cells with human NK1 receptor; agonist Substance P; pKB converted from IC50. As to the method: (§1) Chinese Hamster Ovary (CHO) K1 cells (obtained from ATCC) were stably transfected with the human NK2 receptor (hNK2R cDNA in pRc/CMV, Invitrogen) or the human NK3 receptor (hNK3R in pcDNA 3.1/Hygro (+)/IRES/CD8, Invitrogen vector modified at AstraZeneca EST-Bio UK, Alderley Park). The cells were transfected with the cationic lipid reagent LIPOFECTAMINE™ (Invitrogen) and selection was performed with Geneticin (G418, Invitrogen) at 1 mg/ml for the hNK2R transfected cells and with Hygromycin (Invitrogen) at 500 μg/ml for the hNK3R transfected cells. Single cell clones were collected by aid of Fluorescence Activated Cell Sorter (FACS), tested for functionality in a FLIPR assay (see below), expanded in culture and cryopreserved for future use. CHO cells stably transfected with human NK1 receptors originates from AstraZeneca R&D, Wilmington USA. Human NK1 receptor cDNA (obtained from RNA-PCR from lung tissue) was subcloned into pRcCMV (Invitrogen). Transfection was performed by Calcium Phosphate and selection with 1 mg/ml G418. […]
(§2) The activity of a compound of the invention to inhibit NK1/NK2/NK3 receptor activation measured as NK1/NK2/NK3 receptor mediated increase in intracellular Ca^2+ was assessed by the following procedure: […]

The next data set concerns the target T2, human NK3 receptor (Homo sapiens, UniProt P29371).
T2 construct: expressed in transfected cells
T2 sequence (P29371 1-465): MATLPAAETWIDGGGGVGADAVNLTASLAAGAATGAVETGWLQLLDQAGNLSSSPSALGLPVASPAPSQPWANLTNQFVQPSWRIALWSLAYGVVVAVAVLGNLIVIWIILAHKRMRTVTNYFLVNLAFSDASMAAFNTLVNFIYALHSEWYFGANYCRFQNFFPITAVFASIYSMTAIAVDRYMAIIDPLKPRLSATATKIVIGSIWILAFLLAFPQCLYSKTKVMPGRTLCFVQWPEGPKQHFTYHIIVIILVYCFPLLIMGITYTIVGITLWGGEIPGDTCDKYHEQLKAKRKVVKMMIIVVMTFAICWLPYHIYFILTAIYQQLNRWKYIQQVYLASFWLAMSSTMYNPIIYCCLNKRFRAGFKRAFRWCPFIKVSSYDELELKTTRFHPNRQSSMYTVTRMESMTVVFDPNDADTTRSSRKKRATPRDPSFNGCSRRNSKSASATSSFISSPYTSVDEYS
Briefly: FLIPR assay, inhibition of human NK3 receptor activation (intracellular Ca2+ increase). It counts as cell-based. The following applies: CHO cells with human NK3 receptor; agonist Pro-7-NKB; pKB converted from IC50. The protocol: as §1, §2

The next data set concerns the target CYP3A4 (Homo sapiens, UniProt P08684). Briefly: CYP3A4 inhibition (according to Bapiro et al.). It counts as in vitro ADME. As to the method: The IC50 values tested according to Bapiro et al; Drug Metab. Dispos. 29, 30-35 (2001) were generally greater than 10 μM.
The nature of data set [1]: Metabolic stability in liver microsomes (intrinsic clearance). It counts as in vitro ADME. As to conditions: human, pH 7.4, 37° C., read-out: CLint (HLM). As to the method:
The rate of biotransformation can be measured as either metabolite(s) formation or the rate of disappearance of the parent compound. The experimental design involves incubation of low concentrations of substrate (usually 1.0 μM) with liver microsomes (usually 0.5 mg/ml) and taking out aliquots at varying time points (usually 0, 5, 10, 15, 20, 30, 40 min.). The test compound is usually dissolved in DMSO. The DMSO concentration in the incubation mixture is usually 0.1% or less since more solvent can drastically reduce the activities of some CYP450s. Incubations are done in 100 mM potassium phosphate buffer, pH 7.4 and at 37° C. Acetonitrile or methanol is used to stop the reaction. The parent compound is analysed by HPLC-MS. From the calculated half-life, t1/2, the intrinsic clearance, Clint, is estimated by taking microsomal protein concentration and liver weight into account.

A further data set concerns the target T3, human NK2 receptor (Homo sapiens, UniProt P21452).
T3 construct: expressed in transfected cells
T3 sequence (P21452 1-398): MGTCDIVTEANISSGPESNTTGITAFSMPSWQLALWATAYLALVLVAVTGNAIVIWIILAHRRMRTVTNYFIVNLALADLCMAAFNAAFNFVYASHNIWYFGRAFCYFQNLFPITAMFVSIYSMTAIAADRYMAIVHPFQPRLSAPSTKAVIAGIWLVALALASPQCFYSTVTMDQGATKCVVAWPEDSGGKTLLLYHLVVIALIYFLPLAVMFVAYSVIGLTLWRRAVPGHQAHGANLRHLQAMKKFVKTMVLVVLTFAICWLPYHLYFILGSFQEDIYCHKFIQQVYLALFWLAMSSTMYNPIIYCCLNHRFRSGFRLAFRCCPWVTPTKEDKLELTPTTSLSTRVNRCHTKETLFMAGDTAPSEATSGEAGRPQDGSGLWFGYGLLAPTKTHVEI
Kind of data set: FLIPR assay, inhibition of human NK2 receptor activation (intracellular Ca2+ increase). It counts as cell-based. The following applies: CHO cells with human NK2 receptor; agonist NKA; pKB converted from IC50. As to the method:
as §1, §2

For data set [2], the target named is hERG-encoded potassium channel (Homo sapiens, UniProt Q12809). Kind of data set: Activity against hERG (planar-array-based voltage clamp, Kiss et al.). It counts as cell-based. From the text: The activity of compounds according to formula I against the hERG-encoded potassium channel can be determined according to Kiss L, et al. Assay Drug Dev Technol. 1 (2003), 127-35: “High throughput ion-channel pharmacology: planar-array-based voltage clamp”.

The test system of data set [3] is Human Neurokinin-2 (NK2) Receptor. The following applies: Bioorganic & Medicinal Chemistry Letters (2003), 13, 2211-2215; cited from earlier work.

Each structure is given as a SMILES string.

T1 sequence (P25103 whole entry): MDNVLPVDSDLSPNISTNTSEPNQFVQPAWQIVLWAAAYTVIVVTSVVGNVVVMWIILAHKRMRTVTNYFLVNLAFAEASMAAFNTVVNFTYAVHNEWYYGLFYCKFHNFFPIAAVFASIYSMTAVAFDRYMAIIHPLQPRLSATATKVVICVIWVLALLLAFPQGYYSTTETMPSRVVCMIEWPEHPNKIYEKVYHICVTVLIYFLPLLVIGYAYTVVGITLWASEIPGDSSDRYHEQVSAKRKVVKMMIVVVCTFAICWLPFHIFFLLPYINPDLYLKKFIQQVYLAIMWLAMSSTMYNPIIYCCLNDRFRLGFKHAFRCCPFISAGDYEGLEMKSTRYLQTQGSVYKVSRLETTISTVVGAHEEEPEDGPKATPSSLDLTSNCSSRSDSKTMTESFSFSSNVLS
hERG-encoded potassium channel, sequence (Q12809 whole entry): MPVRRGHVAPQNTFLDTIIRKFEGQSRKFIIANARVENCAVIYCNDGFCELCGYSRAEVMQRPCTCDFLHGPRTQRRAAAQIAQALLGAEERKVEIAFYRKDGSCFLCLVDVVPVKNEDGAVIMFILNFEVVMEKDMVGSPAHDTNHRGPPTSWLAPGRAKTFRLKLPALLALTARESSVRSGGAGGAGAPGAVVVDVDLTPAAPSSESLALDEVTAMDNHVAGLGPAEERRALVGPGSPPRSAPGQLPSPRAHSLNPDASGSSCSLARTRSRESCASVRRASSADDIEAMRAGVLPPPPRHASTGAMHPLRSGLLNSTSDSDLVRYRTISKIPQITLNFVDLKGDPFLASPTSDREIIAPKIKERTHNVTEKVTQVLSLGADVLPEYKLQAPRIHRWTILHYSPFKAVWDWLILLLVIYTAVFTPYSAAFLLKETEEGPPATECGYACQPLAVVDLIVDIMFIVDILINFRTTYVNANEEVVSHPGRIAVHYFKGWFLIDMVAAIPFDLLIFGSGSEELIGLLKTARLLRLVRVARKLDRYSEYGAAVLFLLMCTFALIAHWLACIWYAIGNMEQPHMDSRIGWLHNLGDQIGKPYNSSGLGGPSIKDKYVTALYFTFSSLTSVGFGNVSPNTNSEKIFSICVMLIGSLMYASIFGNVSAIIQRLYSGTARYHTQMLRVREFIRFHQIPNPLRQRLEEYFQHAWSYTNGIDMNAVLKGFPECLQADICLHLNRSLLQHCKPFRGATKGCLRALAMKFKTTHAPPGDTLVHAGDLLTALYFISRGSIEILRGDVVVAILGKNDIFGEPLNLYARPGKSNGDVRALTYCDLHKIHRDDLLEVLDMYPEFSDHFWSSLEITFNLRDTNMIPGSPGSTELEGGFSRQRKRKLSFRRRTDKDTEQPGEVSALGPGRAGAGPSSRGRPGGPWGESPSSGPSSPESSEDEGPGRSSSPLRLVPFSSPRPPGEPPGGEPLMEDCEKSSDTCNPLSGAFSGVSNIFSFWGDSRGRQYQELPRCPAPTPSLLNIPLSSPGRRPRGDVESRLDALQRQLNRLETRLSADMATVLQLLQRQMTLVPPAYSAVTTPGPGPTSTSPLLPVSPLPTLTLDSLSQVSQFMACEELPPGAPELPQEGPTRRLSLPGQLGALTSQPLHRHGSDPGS
CYP3A4, sequence (P08684 whole entry): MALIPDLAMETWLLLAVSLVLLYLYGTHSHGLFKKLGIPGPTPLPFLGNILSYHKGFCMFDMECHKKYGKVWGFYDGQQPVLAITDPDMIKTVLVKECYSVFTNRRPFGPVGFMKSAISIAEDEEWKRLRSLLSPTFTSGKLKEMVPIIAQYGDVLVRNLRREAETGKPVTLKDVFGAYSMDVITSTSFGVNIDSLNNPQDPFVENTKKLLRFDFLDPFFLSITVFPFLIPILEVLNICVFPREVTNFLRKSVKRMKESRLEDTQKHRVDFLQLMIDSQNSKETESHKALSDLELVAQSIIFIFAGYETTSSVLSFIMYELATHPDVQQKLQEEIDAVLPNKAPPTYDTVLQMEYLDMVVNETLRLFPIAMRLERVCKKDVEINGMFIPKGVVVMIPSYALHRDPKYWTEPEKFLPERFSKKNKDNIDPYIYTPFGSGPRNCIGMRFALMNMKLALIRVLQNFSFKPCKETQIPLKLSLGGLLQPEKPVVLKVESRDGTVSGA

Broadly, the IC50 is the concentration that inhibits the measured activity by half. Read a low IC50 as greater potency. As to `CN(C[C@@H](CCN1CC(N2CCC(C(=O)N3CCC3)CC2)C1)c1ccc(F)cc1)C(=O)c1cc(Br)cc(C(F)(F)F)c1` [Ex 1, N-[(2S)-4-{3-[4-(Azetidin-1-ylcarbonyl)piperidin-1-yl]azetidin-1-yl}-2-(4-fluorophenyl)butyl]-3-bromo-N-methyl-5-(trifluoromethyl)benzamide], the Kb at human NK1 receptor is 20 nM; on human NK3 receptor it was 3.98 nM; at human NK2 receptor, 2.51 nM. Moreover, the IC50 on CYP3A4 amounted to 13500 nM; in data set [2] it was 11000 nM. The microsomal CLint at 1 μM in data set [1] was found to be 23 µL/min/mg.

With `CN(CC(CCN1CC(N2CCOCC2)C1)c1ccc(Cl)c(Cl)c1)C(=O)c1ccccc1` (stereo not shown) [N-[2-(3,4-dichlorophenyl)-4-(3-morpholin-4-ylazetidin-1-yl)butyl]-N-methylbenzamide], the “functional NK2 receptor antagonistic properties” value in data set [3] was “functional NK2 receptor antagonistic properties”.
